System: rat spinal cord injury model
Assay: Immunofluorescent staining of macrophages (M1, M2, M1/M2 ratio) in rat spinal cord injury model
Assay type: in vivo
Parameters: Number of macrophages: unit: /mm2
Protocol: Six-week-old female Wistar rats were used. The rats were purchased from Charles River Laboratories Japan, Inc. (Yokohama, Japan). Anesthesia was performed as follows. A 1:10 dilution of a mixture of three anesthetic agents in physiological saline was administered by intraperitoneal injection. One dose consisted of 0.2 mg/kg of midazolam, 0.015 mg/kg of medetomidine, and 0.25 mg/kg of butorphanol. The rat was placed in a prone position on an operating table, and a dorsal midline incision was made. The T10 vertebral arch was removed to expose the posterior face of the spinal cord, and the left spinal cord was hemisected using a sharp-pointed surgical scalpel (spitz mess). The skin was sutured using a 4-0 nylon thread and the surgery was completed. A comparison was made among three groups: a methylcobalamin treatment group, an untreated group, and a sham group. Immediately after the surgical operation, an osmotic minipump filled with methylcobalamin (1 mg/kg/day) or physiological saline was placed for the methylcobalamin treatment group and the untreated group, respectively, and left in the left dorsal subcutaneous space. The sham group underwent only resection of the Th10 vertebral arch.
The rat spinal cord injury model of Example 9-1 was used. At 7, 14, and 28 days after the surgery, the rats were anesthetized with an anesthetic agent, and perfusion fixation was performed with 4% PFA. Then, the spinal cord including the injury site was collected and fixed with 20% sucrose for 24 hours, and the fixed spinal cord was freeze-embedded. The embedded tissue was sliced into a 5-μm-thick slice in a nerve short-axis direction and placed on a glass slide. The slice was dried for 1 hour and fixed with 100% methanol for 30 minutes. The fixed slices were blocked, and cells were allowed to react with primary antibodies at 4° C. overnight. The cells were further allowed to react with a secondary antibody at room temperature for 1 hour so that the nuclei were labeled with DAPI.
Using transverse spinal cord sections on the affected side at 2 and 1 mm on the head side and at 1 and 2 mm on the tail side from the injury site, the number of macrophages, the number of M1 (pro-inflammatory type) macrophages, the proportion of M1 macrophages, the number of M2 (anti-inflammatory type) macrophages, and the proportion of M2 macrophage per unit area, as well as the M1/M2 ratio were measured and calculated.
The primary antibodies used were an anti-CD68 antibody, an anti-iNOS antibody, and an anti-Arg1 antibody. The secondary antibodies used were an Alexa 488-labeled goat anti-rabbit IgG antibody and an Alexa 568-labeled goat anti-mouse IgG antibody.

[1] = 7, 14 and 28 days after the surgery, 1 mg/kg/day
[2] = Table 16 (FIG. 16; day not given), 1 mm on the head side
[3] = Table 16 (FIG. 16; day not given), 1 mm on the tail side
[4] = Table 16 (FIG. 16; day not given), 2 mm on the head side
[5] = Table 16 (FIG. 16; day not given), 2 mm on the tail side
[6] = Table 17 (FIG. 17; day not given), 1 mm on the head side
[7] = Table 17 (FIG. 17; day not given), 1 mm on the tail side
[8] = Table 17 (FIG. 17; day not given), 2 mm on the head side
[9] = Table 17 (FIG. 17; day not given), 2 mm on the tail side
[10] = Table 18 (FIG. 18; day not given), 1 mm on the head side
[11] = Table 18 (FIG. 18; day not given), 1 mm on the tail side
[12] = Table 18 (FIG. 18; day not given), 2 mm on the head side
[13] = Table 18 (FIG. 18; day not given), 2 mm on the tail side

`C/C1=C2/[N-][C@H]([C@H](CC(N)=O)[C@@]2(C)CCC(=O)NC[C@@H](C)OP(=O)([O-])O[C@H]2[C@@H](O)[C@@H](n3cnc4cc(C)c(C)cc43)O[C@@H]2CO)[C@]2(C)N=C(/C(C)=C3N=C(/C=C4N=C1[C@@H](CCC(N)=O)C\4(C)C)[C@@H](CCC(N)=O)[C@]\3(C)CC(N)=O)[C@@H](CCC(N)=O)[C@]2(C)CC(N)=O.[CH3-].[Co+3]` [MeCbl, methylcobalamin] was tested, and the “M1 macrophages as compared with the untreated group” value [1] was “trends for decreased M1 macrophages”, the “M2 macrophages as compared with the untreated group” value [1] was “increased M2 macrophages” and the “number of accumulated macrophages per unit area as compared with the untreated group” value [1] was “trends for a smaller number”. It also gave an M1/M2 (7 days after a surgery, 1 mm on the head side) of 0.5722, an M1/M2 (7 days after a surgery, 1 mm on the tail side) of 0.602 and an M1/M2 (7 days after a surgery, 2 mm on the head side) of 0.8156. The M1/M2 (7 days after a surgery, 2 mm on the tail side) was 0.9337, the M1/M2 (14 days after a surgery, 1 mm on the head side) was 0.993 and the M1/M2 (14 days after a surgery, 1 mm on the tail side) was 0.9409. The M1/M2 (14 days after a surgery, 2 mm on the head side) was 0.9106, the M1/M2 (14 days after a surgery, 2 mm on the tail side) was 0.8605 and the M1/M2 (28 days after a surgery, 1 mm on the head side) was 2.457. For the same molecule, the M1/M2 (28 days after a surgery, 1 mm on the tail side) was 4.3, the M1/M2 (28 days after a surgery, 2 mm on the head side) was 3.355 and the M1/M2 (28 days after a surgery, 2 mm on the tail side) was 3.545. The M1 macropage ratio [2] was 0.131, the “Number of M1 macrophages/mm2” value [2] was 37.00 /mm2 and the “Number of M2 macrophages/mm2” value [2] was 63.85 /mm2. The Number of macrophages [2] was 268.62, the M1 macropage ratio [3] was 0.129 and the “Number of M1 macrophages/mm2” value [3] was 43.07 /mm2. The “Number of M2 macrophages/mm2” value [3] was 76.13 /mm2, the Number of macrophages [3] was 348.57 and the M1 macropage ratio [4] was 0.143. The “Number of M1 macrophages/mm2” value [4] was 20.43 /mm2, the “Number of M2 macrophages/mm2” value [4] was 25.87 /mm2 and the Number of macrophages [4] was 143.68. For the same molecule, the M1 macropage ratio [5] was 0.170, the “Number of M1 macrophages/mm2” value [5] was 27.02 /mm2 and the “Number of M2 macrophages/mm2” value [5] was 28.76 /mm2. For the same molecule, the Number of macrophages [5] was 155.09, the M1 macrophage ratio [6] was 0.122 and the M2 macrophage ratio [6] was 0.130. The “Number of M1 macropages/mm2” value [6] was 48.35 /mm2, the “Number of M2 macrophages/mm2” value [6] was 47.90 /mm2 and the Number of macrophages [6] was 362.17. For the same molecule, the M1 macrophage ratio [7] was 0.102, the M2 macrophage ratio [7] was 0.112 and the “Number of M1 macropages/mm2” value [7] was 43.74 /mm2. The “Number of M2 macrophages/mm2” value [7] was 43.12 /mm2, the Number of macrophages [7] was 395.70 and the M1 macrophage ratio [8] was 0.103. For the same molecule, the M2 macrophage ratio [8] was 0.146, the “Number of M1 macropages/mm2” value [8] was 28.35 /mm2 and the “Number of M2 macrophages/mm2” value [8] was 36.37 /mm2. It also gave a Number of macrophages [8] of 271.15, an M1 macrophage ratio [9] of 0.094 and an M2 macrophage ratio [9] of 0.143. The “Number of M1 macropages/mm2” value [9] was 25.54 /mm2, the “Number of M2 macrophages/mm2” value [9] was 28.29 /mm2 and the Number of macrophages [9] was 254.39. For the same molecule, the M1 macrophage ratio [10] was 0.090, the M2 macropahge ratio [10] was 0.039 and the “Number of M1 macrophages/mm2” value [10] was 29.78 /mm2. The “Number of M2 macrophages/mm2” value [10] was 12.86 /mm 2, the Number of macrophages [10] was 320.22 and the M1 macrophage ratio [11] was 0.132. For the same molecule, the M2 macropahge ratio [11] was 0.032, the “Number of M2 macrophages/mm2” value [11] was 10.33 /mm 2 and the Number of macrophages [11] was 342.11. The “Number of M1 macrophages/mm2” value (Table 18 (FIG. 18; day not given), 1 mm on the tail side (last position column)) was 24.68 /mm2, the “Number of M1 macrophages/mm2” value (Table 18 (FIG. 18; day not given), 1 mm on the tail side (third position column)) was 44.79 /mm2 and the M1 macrophage ratio [12] was 0.089. For the same molecule, the M2 macropahge ratio [12] was 0.032, the “Number of M1 macrophages/mm2” value [12] was 20.16 /mm2 and the “Number of M2 macrophages/mm2” value [12] was 7.65 /mm 2. For the same molecule, the Number of macrophages [12] was 230.75, the M1 macrophage ratio [13] was 0.095 and the M2 macropahge ratio [13] was 0.032. For the same molecule, the “Number of M2 macrophages/mm2” value [13] was 7.42 /mm 2 and the Number of macrophages [13] was 246.52.

From US12029751B2, “Therapeutic agent for nervous system disease” (OSAKA UNIVERSITY, priority 2017, dated 2024)
